Experimental data: PMC4619319, “A potent anti-inflammatory peptide from the salivary glands of horsefly” (Parasites & Vectors, 2015)

What was measured:
P-ERK1 = experiment: Western blot, LPS-induced P-ERK1 in peritoneal macrophages; assay type: cell-based, mouse; conditions: 20 μg/mL peptide, 100 ng/mL LPS, 30 min, band density ratio to β-actin
Experimental: Cells were treated with different concentrations of cecropin-TY1 (0, 5, 10, and 20 μg/mL) in the presence or absence of 100 ng/mL LPS (from E. coli 0111:B4, Sigma-Aldrich, USA). After 30-min incubation, cells were washed twice with ice-cold PBS and lysed with RIPA lysis buffer (Beyotime, China) on ice for 30 min according to our previous method. Protein concentration was quantified by BCA Protein Assay Kit (Thermo, Germany). About 40 μg protein was separated on a 10 % SDS-PAGE gel and transferred to a polyvinylidene difluoride membrane. The membrane was blocked by incubating with 5 % BSA (BD, USA) dissolved in Tris-buffered solution Tween-20 (TBST, 2.42 g/L Trisbase, 8 g/L NaCl, 0.1 % Tween 20, pH 7.6) for 2 h at room temperature. The membrane was then incubated with primary antibodies against ERK, phospho-ERK, p38, phospho-p38, JNK, phospho-JNK, phospho-IκBα, NF-κB p65 and phospho-NF-κB p65 (1:2000, Cell Signaling Technology, USA) and GAPDH/β-actin (1:5000, Santa Cruz Biotechnology, USA) overnight at 4 °C, respectively. After incubation, the immunoblot was washed three times with TBST for 5 min each time, and incubated with secondary antibody (1:5000, Cell Signaling Technology, USA) at room temperature for 1 h. Signals were measured by enhanced chemiluminescence kit in a dark room after washing three times with TBST for 10 min each time (TIANGEN, China).

[1] = Dissociation of FITC-conjugated LPS aggregates (fluorescence); assay type: binding; conditions: FITC-LPS 1 μg/mL, 10 mM phosphate buffer pH 6.0, ex 480 nm / em 515 nm
Experimental: Fluorescein isothiocyanate (FITC)-conjugated LPS (1 μg/mL, Sigma-Aldrich, USA) was excited at 480 nm and monitored the changes in the emission of FITC-LPS at 515 nm in the incubation of different concentrations of peptides (0, 12.5, 25, 50, 100 μg/mL). Peptides were dissolved in 10 mM phosphate buffer at pH 6.0. The interactions between peptides and LPS were further assessed by a quantitative Chromogenic End-point Tachypleus amebocyte lysate (TAL) assay kit (Xiamen Houshiji, China) following the kit instruction. Briefly, different concentrations of peptides (0, 12.5, 25, 50, 100 μg/mL) were incubated with LPS (1 μg/mL, Sigma-Aldrich, USA) at 37 °C for 30 min. After incubation, 100 μL TAL solution was added to 100 μL LPS-peptide mixtures in a pyrogen-free tube and incubated at 37 °C for 10 min. Then, LPS-peptide mixtures were added with pre-warmed substrate solution for additional 6-min incubation at 37 °C. Lastly, the absorbance at 545 nm was measured on a microplate reader (Epoch Etock, BioTek, USA). The percentages of LPS-neutralizing activity were calculated.

[2] = cited from earlier work
From the text: Supplement 13071_2015_1149_MOESM1_ESM.docx, table 2: Table S2. Primary structural and biochemical characteristics of cecropin-TY1. | column: […]-NH2 39 +5 3970.22 Da 3970.66 Da 11.17

## GWLKKIGKKIERVGQNVRNAAISTLPIAQGAAGVAGALN-NH2 [cecropin-TY1, cecropin antimicrobial peptide from salivary glands of horsefly Tabanus yao, 39 residues, C-terminally amidated, synthesized]
P-ERK1
  inhibition of LPS-induced P-ERK1 expression: 75.5%
[1]; 12.5 μg/mL peptide
  increase of FITC-LPS fluorescence: 33.4%
[1]; 25 μg/mL peptide
  increase of FITC-LPS fluorescence: 46.7%
[1]; 50 μg/mL peptide
  increase of FITC-LPS fluorescence: 63.3%
[1]; 100 μg/mL peptide
  increase of FITC-LPS fluorescence: 71.6%
[2]
  Net charges: 5
[2]; theoretical
  Theoretical pI: 11.17
